Laboratory results: patent publication US6222035A, “[1,2,4] triazolo [1,5-C] pyrimidine derivatives” (Kyowa Hakko Kogyo Co., Ltd., priority 1997, dated 2001)
Structures can show the parent of a compound that is named as a salt.

Tests used:
[1] = system: CGS 21680-induced catalepsy in mice; test: Activity on CGS 21680-induced Catalepsy; type: in vivo, mouse (male ddY); settings: 10 mg/kg oral; for Total score (catalepsy): 10 animals, maximum 50 points, control 48; for Number of Animals showing remission: catalepsy score 4 points or less in 10 cases; for inhibition in vivo at 10 mg/kg: Mus musculus, CGS 21680-induced catalepsy, read-out: Remission ratio (%)
Outline: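 Male ddY mice (5 weeks, 10 per group) received CGS 21680 10 μg/20 μl intracerebroventricularly; test compounds given orally at 10 mg/kg in 0.3% Tween 80 suspension. Catalepsy scored 1 h after dosing on a 4.5 cm bar; total group score (maximum 50) compared with control; ≤4 per animal counted as remission.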

[2] = system: clonidine-induced aggressive behavior in mice; test: Activity on Clonidine-induced Aggressive Behavior; type: in vivo, mouse (male ddY); settings: 10 mg/kg po
Procedure: Activity on Clonidine-induced Aggressive Behavior
Effect of test compounds to increase aggressive behavior induced by the intraperitoneal injection of clonidine [European Journal of Pharmacology, 29: 374 (1968)] was examined.
This test was carried out using 2 animals per group of male ddY mice of 20 to 25 g in body weight (Japan SLC). Each test compound was used by mixing it with Tween 80 and then suspending it in distilled water for injection (manufactured by Otsuka Pharmaceutical), and clonidine hydrochloride (manufactured by Sigma Co.) was used by dissolving it in physiological saline (manufactured by Otsuka Pharmaceutical). […] The number of aggressive behavior of each mouse was measured for 30 minutes immediately after the administration of clonidine. The effect was judged by comparing values of the number of aggressive behavior in the control and those in test compound-administered groups (significance test: Student t-test).

[3] = system: haloperidol-induced catalepsy in mice; test: Activity on haloperidol-induced Catalepsy; type: in vivo, mouse (male ddY); settings: 10 mg/kg oral; for Total score (catalepsy): 10 animals, maximum 50 points, control 50; for Number of Animals showing remission: catalepsy score 4 points or less in 10 cases; for Remission ratio (%): haloperidol-induced catalepsy
Procedure: Activity on haloperidol-induced Catalepsy
Parkinson's disease is a disease based on the degeneration and cell death of the nigrostriatal dopaminergic neuron. When haloperidol (dopamine D1/D2 antagonist) is administered, catalepsy is induced by the block of postsynaptic D2 receptor. This haloperidol-induced catalepsy is known as a classic model in which symptoms of Parkinson's disease are produced by drug administration [European Journal of Pharmacology, 182: 327 (1990) and U.S. Pat. No. 3,991,207].
This test was carried out using 10 animals per group of male ddY mice of 5 week age (22 to 24 g in body weight, Japan SLC). Haloperidol (manufacturedby Janssen) was suspended in 0.3% CMC and administered intraperitoneally into mice at a dose of 1.0 mg/kg. Each test compound was used by mixing it with Tween 80 and then suspending it in distilled water for injection (manufactured by Otsuka Pharmaceutical). Also, L-DOPA (manufactured by Kyowa Hakko Kogyo Co., Ltd.) and benserazide HCl (manufactured by Kyowa Hakko Kogyo Co., Ltd.) were used by suspending them in 0.3% CMC. […] All of the test compounds were administered orally in a dose of 10 mg/kg, and 100 mg/kg of L-DOPA and 25 mg/kg of benserazide were used in combination as a control drug and administered by intraperitoneal injection. The catalepsy score was evaluated by the judging criteria shown in the above-described Table 3.
The effect was judged by total catalepsy scores of 10 animals in one group (the maximum is 50 points). When the total score was 40 points or less, the activity of drugs was judged positive. The number of animals showing remission of catalepsy was expressed by the number of cases in which the catalepsy score was 4 points or less in 10 cases. The catalepsy remission ratio was expressed as the percentage of the total score in the test compound-administered group to the total score in the control group.

[4] = target: T1, adenosine A2A receptor (Rattus norvegicus, UniProt P30543); test: Adenosine receptor binding activity (adenosine A2A receptor binding test), 3H-CGS 21680 binding; settings: 2 h, read-out: A2A receptor inhibition ratio (%); for inhibition at 0.1 µM: 10^-7 M; for inhibition at 0.01 µM: 10^-8 M
T1 construct: from tissue; host or cells: rat corpus striatum, washed membrane suspension
T1 sequence (P30543 whole entry): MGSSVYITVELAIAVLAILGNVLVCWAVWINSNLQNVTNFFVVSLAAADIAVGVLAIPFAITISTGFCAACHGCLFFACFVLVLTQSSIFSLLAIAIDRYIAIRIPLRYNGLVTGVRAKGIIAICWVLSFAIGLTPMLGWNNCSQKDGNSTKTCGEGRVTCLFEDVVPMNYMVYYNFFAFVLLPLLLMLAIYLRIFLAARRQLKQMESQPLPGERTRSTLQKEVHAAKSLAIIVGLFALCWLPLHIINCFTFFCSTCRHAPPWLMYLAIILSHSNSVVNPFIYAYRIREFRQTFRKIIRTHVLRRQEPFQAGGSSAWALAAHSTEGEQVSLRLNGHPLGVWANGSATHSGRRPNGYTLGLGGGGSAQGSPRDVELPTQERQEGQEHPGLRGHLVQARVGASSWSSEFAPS
Procedure: Adenosine receptor binding activity (adenosine A2A receptor binding test) This test was carried out by slightly modifying the method of Bruns et al. [Molecular Pharmacology, 29: 331 (1986)].
Corpus striatum of a rat was suspended in an ice-cooled 50 mM tris(hydroxymethyl)aminomethane hydrochloride (hereinafter referred to as "Tris-HCl") buffer (pH 7.7) using Polytron Homogenizer (manufactured by Kinematica Co.). The suspension was centrifuged (50,000×g, 10 minutes), and the obtained precipitate was re-suspended in the same amount of 50 mM Tris-HCl buffer. The suspension was centrifuged under the same conditions, and the final precipitate was suspended in 50 mM Tris-HCl [containing 10 mM magnesium chloride and 0.02 unit/mg tissue of adenosine deaminase (manufactured by Sigma Co.)] to give a tissue concentration of 5 mg (wet weight)/ml.
To 1 ml of the tissue suspension thus prepared were added 50 μl of tritium-labeled CGS 21680 {^3 H-2-[p-(2-carboxyethyl)phenethylamino]-5'-N-ethylcarboxamido)adenosine: 40 Ci/mmol; manufactured by New England Nuclear Co.[The Journal of Pharmacology and Experimental Therapeutics, 251: 888 (1989)]} (final concentration:4.0 nM) and 50 μl of a test compound. The resulting mixture was allowed to stand for 120 minutes at 25° C., and then rapidly filtered by suction through a glass fiber filter (GF/C, manufactured by Whatman Co.) The filter was immediately washed three times with […] of an ice-cooled 50 mM Tris-HCl buffer, and transferred to a vial, a scintillator (EX-H , manufactured by Wako Pure Chemical Industries, Ltd.) was added thereto, and the radioactivity on the filter was determined with a liquid scintillation counter (manufactured by Packard Instrument Co.) […]
The inhibition ratio of the test compound against the A2A receptor binding (^3 H-CGS 21680 binding) was calculated by the following equation:
Inhibition ratio (%)={1-(Amount of the binding in the presence of the test compound-Amount of the nonspecific binding)/(Amount of the total binding-Amount of the nonspecific binding)}×100
(Note) Amount of the total binding means the amount of radioactivity of ^3 H-CGS 21680 bound in the absence of the test compound. Amount of the nonspecific binding means the amount of radioactivity of ^3 H-CGS 21680 bound in the presence of 100 μM cyclopentyladenosine (CPA, manufactured by Sigma Co.) Amount of the binding in the presence of the test compound means the amount of radioactivity of ^3 H-CGS 21680 bound in the presence of the test compound at various levels of concentrations.

Row | inhibition at 0.1 µM [4] | inhibition at 0.01 µM [4] | SMILES | Total score (catalepsy) [1] | Number of Animals showing remission [1] | inhibition in vivo at 10 mg/kg [1] | Number of attacks in test compound group/number of attacks in control group [2] | Number of attacks (count; average ± S.E.M.), test compound group ([2]; *: p < 0.05, 10 animals) | Total score (catalepsy) [3] | Number of Animals showing remission [3] | Remission ratio (%) [3]
1 |  |  | Nc1nc(N2CCOCC2)cc2nc(-c3ccco3)nn12 [Compound 39, 5-Amino-2-(2-furyl)-7-morpholino[1,2,4]triazolo[1.5-c]pyrimidine] | 20 | 9 | 56% | 8.1 | 9.70 ± 3.42 count |  |  | 
2 | 79% | 35% | Nc1nc(N2CCN(CCc3ccccc3)CC2)cc2nc(-c3ccco3)nn12 [Compound 46, 5-Amino-2-(2-furyl)-7-[4-(2-phenylethyl)piperazinyl][1,2,4]triazolo[1,5-c]pyrimidine] | 9 | 10 | 78% |  |  | 13 | 10 | 74%
3 | 82% | 43% | Nc1nc(N2CCN(Cc3ccccc3)CC2)cc2nc(-c3ccco3)nn12 [Compound 42, 5-Amino-7-(4-benzylpiperazinyl)2-(2-furyl)[1,2,4]triazolo[1,5-c]pyrimidine] | 12 | 9 | 72% |  |  | 1 | 10 | 98%
4 | 89% | 71% | COc1cccc(OC)c1Oc1cc2nc(-c3ccco3)nn2c(N)n1 [Compound 32, 5-Anino-7-(2,6-dimethoxyphenoxy)-2-(2-furyl)[1,2,4]triazolo[1,5-c]pyrimidine] | 21 | 9 | 54% |  |  | 37 | 5 | 26%
5 |  |  | CCOC(=O)c1cnc(N)n2nc(-c3ccco3)nc12 [Compound 55, 5-Amino-8-ethoxycarbonyl-2-(2-furyl)[1,2,4]triazolo[1,5-c]pyrimidine] | 29 | 9 | 36% |  |  | 35 | 5 | 30%
6 | 66% |  | Cc1nc(CN2CCN(c3cc4nc(-c5ccco5)nn4c(N)n3)CC2)cs1 [Compound 142, 5-Amino-2-(2-furyl)-7-(4-(2-methylthiazol-4-ylmethyl)piperazinyl)[1,2,4]triazolo[1,5-c]pyrimidine] | 6 | 10 | 88% |  |  |  |  | 
7 | 73% |  | COc1cc(CN2CCN(c3cc4nc(-c5ccco5)nn4c(N)n3)CC2)cc(OC)c1 [Compound 76, 5-Amino-7-(4-(3,5-dimethoxybenzyl)piperazinyl)-2-(2-furyl)[1,2,4]triazolo[1,5-c]pyrimidine] | 11 | 10 | 76% |  |  |  |  | 
8 | 58% |  | Nc1nc(N2CCN(Cc3cnns3)CC2)cc2nc(-c3ccco3)nn12 [Compound 144, 5-Amino-2-(2-furyl)-7-(4-(1,2,3-thiadiazol-5-ylmethyl)piperazinyl)[1,2,4]triazolo[1,5-c]pyrimidine] | 9 | 9 | 80% |  |  |  |  | 
9 | 60% |  | Nc1nc(N2CCN(CCF)CC2)cc2nc(-c3ccco3)nn12 [Compound 126, 5-Amino-7-(4-(2-fluoroethyl)piperazinyl)-2-(2-furyl)[1,2,4]triazolo[1,5-c]pyrimidine] | 2 | 9 | 96% |  |  |  |  | 
10 | 59% |  | COCCCN1CCN(c2cc3nc(-c4ccco4)nn3c(N)n2)CC1 [Compound 99, 5-Amino-2(2-furyl)-7-(4-(3-methoxypropyl)piperazinyl)[1,2,4]triazolo[1,5-c]pyrimidine] | 5 | 10 | 90% |  |  |  |  | 
11 | 49% |  | CCCCN1CCN(c2cc3nc(-c4ccco4)nn3c(N)n2)CC1 [Compound 135, 5-Amino-7-(4-butylpiperazinyl)-2-(2-furyl)[1,2,4]triazolo[1,5-c]pyrimidine] | 9 | 9 | 80% |  |  |  |  | 
12 | 84% |  | COc1ccc(OC)c(CN2CCN(c3cc4nc(-c5ccco5)nn4c(N)n3)CC2)c1 [Compound 75, 5-Amino-7-((2,5-dimethoxybenzyl)piperazinyl)-2-(2-furyl)[1,2,4]triazolo[1,5-c]pyrimidine] | 10 | 9 | 76% |  |  |  |  | 
13 | 36% |  | Nc1nc(N2CCN(c3ccccn3)CC2)cc2nc(-c3ccco3)nn12 [Compound 93, 5-Amino-2-(2-furyl)-7-(4-(2-pyridyl)piperazinyl)[1,2,4]triazolo[1,5-c]pyrimidine] | 10 | 8 | 66% |  |  |  |  | 
14 | 82% |  | Nc1nc(N2CCN(CCOc3ccccc3)CC2)cc2nc(-c3ccco3)nn12 [Compound 90, 5-Amino-2-(2-furyl)-7-(4-(2-phenoxyethyl)piperazinyl)[1,2,4]triazolo[1,5-c]pyrimidine hydrochloride] | 12 | 9 | 80% |  |  |  |  | 
